# Results reported in patent publication US9051310B2, “Nicotinamide derivative or salt thereof” (FUJIFILM Corporation, priority 2011, dated 2015).
# pIC50: −log10 of the molar value.
# Assays:
# [1] = tested on: THP-1 cells (phagocytosis of opsonized Escherichia coli); assay: Antibody-dependent phagocytosis assay; format: cell-based; details: Homo sapiens; IFNγ differentiated THP-1 cells, opsonized pHrodo Escherichia coli, 3 hours; read-out: IC50 upon phagocytosis inhibition
# Description: THP-1 cells (2×10^5 cells/ml), which were human monocytoid cells, were cultured in the presence of 10 ng/ml IFNγ for 2 days, and they were induced to differentiate into macrophage-like cells. The differentiation-induced THP-1 cells were recovered, and the cells (5×10^4 cells/well) were then allowed to react with a predetermined concentration of test compound at room temperature for 30 minutes. Thereafter, Escherichia coli (Life Technologies) labeled with a pH-sensitive dye (pHrodo) was subjected to opsonization using an anti-Escherichia coli antibody (Life Technologies). Then, the resultant was added to the THP-1 cells obtained above, followed by incubation at 37° C. for 3 hours. Opsonized Escherichia coli and cell-permeable fluorescent dye (Calcein AM) were simultaneously added thereto, followed by quantitative determination of phagocytosis of opsonized Escherichia coli in viable cells using an IN Cell Analyzer.
# [2] = biological target: T1, glutathione S-transferase (GST)-linked full-length human Syk protein (Homo sapiens, UniProt P43405); assay: Syk enzyme assay; format: biochemical; details: 0.83 nM Syk, time-resolved fluorescence; read-out: IC50 of Syk-inhibitory activity
# T1 construct: glutathione S-transferase (GST)-linked full-length human Syk protein; purchased Carna Biosciences; host or cells: Baculovirus expression system
# How it was run: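 Phosphotyrosine on a biotin-peptide substrate (0.5 μM) was read by time-resolved fluorescence at 615 and 665 nm with Eu-anti-pTyr antibody and APC-streptavidin after 1 h EDTA stop.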
# [3] = tested on: THP-1 cells (TNFα secretion on human IgG-coated plate); assay: TNFα generation assay; format: cell-based; details: IFN-γ differentiated THP-1 cells, 7 hours, AlphaLISA, read-out: IC50 of TNFα generation inhibitory activity
# How it was run: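 Secreted TNFα was measured by AlphaLISA after 7 h of culture on human IgG-coated wells (coating at 10 μg/ml), with 5×10^4 cells/well. Before plating, the cells had been treated with compound for 30 min at room temperature. The cells were macrophage-like THP-1, produced by a 2-day exposure to 10 ng/ml IFN-γ.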
SMILES,pIC50 [1],pIC50 [2],pIC50 [3]
"CN(C)c1c2cc(Nc3nc(N[C@@H]4CCCC[C@@H]4N)c(F)cc3C(N)=O)ccc2nn1C [Example 2-13, 6-(((1R,2S)-2-aminocyclohexyl)amino)-2-((3-(dimethylamino)-2-methyl-2H-indazol-5-yl)amino)-5-fluoronicotinamide]",> 6.00,> 8.00,
"CCn1nc(OC)c2cc(Nc3nc(N[C@H](CC4CC4)[C@H](C)N)c(F)cc3C(N)=O)ccc21 [Example 2-50, 6-(((2R,3S)-3-amino-1-cyclopropylbutan-2-yl)amino)-2-((1-ethyl-3-methoxy-1H-indazol-5-yl)amino)-5-fluoronicotinamide]",> 6.00,> 8.00,
"CC[C@H](N)[C@@H](CC)Nc1nc(Nc2ccc3c(c2)c(OC)nn3C)c(C(N)=O)cc1F [Example 2-85, 6-(((3R,4S)-4-aminohexan-3-yl)amino)-5-fluoro-2-((3-methoxy-1-methyl-1H-indazol-5-yl)amino)nicotinamide]",> 6.00,7.30 to 8.00,
"COc1ncc(Nc2nc(N[C@H](C3CC3)[C@H](C)N)c(F)cc2C(N)=O)cc1-n1nccn1 [Example 2-113, 6-(((1R,2S)-2-amino-1-cyclopropylpropyl)amino)-5-fluoro-2-((6-methoxy-5-(2H-1,2,3-triazol-2-yl)pyridin-3-yl)amino)nicotinamide]",5.52 to 6.00,7.30 to 8.00,
"COCCOc1ncc(Nc2nc(N[C@H](C3CCC3)[C@H](C)N)c(F)cc2C(N)=O)cc1F [Example 2-116, 6-(((1R,2S)-2-amino-1-cyclobutylpropyl)amino)-5-fluoro-2-((5-fluoro-6-(2-methoxyethoxy)pyridin-3-yl)amino)nicotinamide]",5.52 to 6.00,7.30 to 8.00,
"COCCn1nc(OC)c2cc(Nc3nc(N[C@@H](CN)CC(C)C)c(F)cc3C(N)=O)ccc21 [Example 2-124, (R)-6-((1-amino-4-methylpentan-2-yl)amino)-5-fluoro-2-((3-methoxy-1-(2-methoxyethyl)-1H-indazol-5-yl)amino)nicotinamide]",> 6.00,> 8.00,
"COCCn1nc(OC)c2cc(Nc3nc(N[C@H](COC)[C@H](C)N)c(F)cc3C(N)=O)ccc21 [Example 2-128, 6-(((2S,3S)-3-amino-1-methoxybutan-2-yl)amino)-5-fluoro-2-((3-methoxy-1-(2-methoxyethyl)-1H-indazol-5-yl)amino)nicotinamide]",5.52 to 6.00,7.30 to 8.00,
"COc1nn(C)c2c(F)cc(Nc3nc(N[C@H](C4CCC4)[C@H](C)N)c(F)cc3C(N)=O)cc12 [Example 2-158, 6-(((1R,2S)-2-amino-1-cyclobutylpropyl)amino)-5-fluoro-2-((7-fluoro-3-methoxy-1-methyl-1H-indazol-5-yl)amino)nicotinamide]",> 6.00,> 8.00,
"CCOc1ncc(Nc2nc(N[C@H](C3CC3)[C@H](C)N)c(F)cc2C(N)=O)cc1-n1ccnn1 [Example 2-163, 6-(((1R,2S)-2-amino-1-cyclopropylpropyl)amino)-2-((6-ethoxy-5-(1H-1,2,3-triazol-1-yl)pyridin-3-yl)amino)-5-fluoronicotinamide]",5.52 to 6.00,7.30 to 8.00,
"NC[C@@H](Cc1ccccc1)Nc1nc(Nc2ccc(N3CCOCC3)nc2)c(C(N)=O)cc1F [Example 2-420, (R)-6-((1-amino-3-phenylpropan-2-yl)amino)-5-fluoro-2-((6-morpholinopyridin-3-yl)amino)nicotinamide]",> 6.00,,
"CC[C@@H](Nc1nc(Nc2cccc(C)c2)c(C(N)=O)cc1F)[C@H](C)N [Example 2-474, 6-(((2S,3R)-2-aminopentan-3-yl)amino)-5-fluoro-2-(m-tolylamino)nicotinamide]",,> 8.00,6.70 to 6.89
"CC[C@@H](Nc1nc(Nc2cccc(-n3nccn3)c2)c(C(N)=O)cc1F)[C@H](C)N [Example 2-475, 2-((3-(2H-1,2,3-triazol-2-yl)phenyl)amino)-6-(((2S,3R)-2-aminopentan-3-yl)amino)-5-fluoronicotinamide]",,> 8.00,6.89 to 7.19
"CC[C@@H](Nc1nc(Nc2cccc(-n3ccnn3)c2)c(C(N)=O)cc1F)[C@H](C)N [Example 2-476, 2-((3-(1H-1,2,3-triazol-1-yl)phenyl)amino)-6-(((2S,3R)-2-aminopentan-3-yl)amino)-5-fluoronicotinamide]",,> 8.00,6.89 to 7.19
"CC[C@@H](Nc1nc(Nc2ccc(C)c(C)c2)c(C(N)=O)cc1F)[C@H](C)N [Example 2-477, 6-(((2S,3R)-2-aminopentan-3-yl)amino)-2-((3,4-dimethylphenyl)amino)-5-fluoronicotinamide]",,> 8.00,6.70 to 6.89
"CC[C@@H](Nc1nc(Nc2cccc(C(C)=O)c2)c(C(N)=O)cc1F)[C@H](C)N [Example 2-478, 2-((3-acetylphenyl)amino)-6-(((2S,3R)-2-aminopentan-3-yl)amino)-5-fluoronicotinamide]",,> 8.00,6.89 to 7.19
"C[C@H](N)[C@H](Nc1nc(Nc2cccc(-n3nccn3)c2)c(C(N)=O)cc1F)C1CC1 [Example 2-479, 2-((3-(2H-1,2,3-triazol-2-yl)phenyl)amino)-6-(((1R,2S)-2-amino-1-cyclopropylpropyl)amino)-5-fluoronicotinamide]",,> 8.00,6.89 to 7.19
"C[C@H](N)[C@H](Nc1nc(Nc2cccc(-n3ccnn3)c2)c(C(N)=O)cc1F)C1CC1 [Example 2-480, 2-((3-(1H-1,2,3-triazol-1-yl)phenyl)amino)-6-(((1R,2S)-2-amino-1-cyclopropylpropyl)amino)-5-fluoronicotinamide]",,> 8.00,6.89 to 7.19
"Cc1ccc(Nc2nc(N[C@H](C3CC3)[C@H](C)N)c(F)cc2C(N)=O)cc1C [Example 2-481, 6-(((1R,2S)-2-amino-1-cyclopropylpropyl)amino)-2-((3,4-dimethylphenyl)amino)-5-fluoronicotinamide]",,> 8.00,6.89 to 7.19
"CC(=O)c1cccc(Nc2nc(N[C@H](C3CC3)[C@H](C)N)c(F)cc2C(N)=O)c1 [Example 2-482, 2-((3-acetylphenyl)amino)-6-(((1R,2S)-2-amino-1-cyclopropylpropyl)amino)-5-fluoronicotinamide]",,> 8.00,6.89 to 7.19
"CNc1nn(C)c2ccc(Nc3nc(N[C@@H]4CCCC[C@@H]4N)c(F)cc3C(N)=O)cc12 [Example 2-496, 6-(((1R,2S)-2-aminocyclohexyl)amino)-5-fluoro-2-((1-methyl-3-(methylamino)-1H-indazol-5-yl)amino)nicotinamide]",,> 8.00,6.70 to 6.89
"C[C@H](N)[C@H](Nc1nc(Nc2cnc(N3CCOCC3)c(F)c2)c(C(N)=O)cc1F)c1cccs1 [Example 2-508, 6-(((1S,2S)-2-amino-1-(thiophen-2-yl)propyl)amino)-5-fluoro-2-((5-fluoro-6-morpholinopyridin-3-yl)amino)nicotinamide]",,> 8.00,6.89 to 7.19
"CC(=O)c1cc(Nc2nc(N[C@@H]3CCCC[C@@H]3N)c(F)cc2C(N)=O)cnc1C [Example 2-518, 2-((5-acetyl-6-methylpyridin-3-yl)amino)-6-(((1R,2S)-2-aminocyclohexyl)amino)-5-fluoronicotinamide]",,> 8.00,6.89 to 7.19
"Cc1cnn(-c2cncc(Nc3nc(N[C@H](C4CC4)[C@H](C)N)c(F)cc3C(N)=O)c2)c1 [Example 2-519, 6-(((1R,2S)-2-amino-1-cyclopropylpropyl)amino)-5-fluoro-2-((5-(4-methyl-1H-pyrazol-1-yl)pyridin-3-yl)amino)nicotinamide]",,> 8.00,6.70 to 6.89
"CC[C@@H](Nc1nc(Nc2cncc(-n3cc(C)cn3)c2)c(C(N)=O)cc1F)[C@H](C)N [Example 2-521, 6-(((2S,3R)-2-aminopentan-3-yl)amino)-5-fluoro-2-((5-(4-methyl-1H-pyrazol-1-yl)pyridin-3-yl)amino)nicotinamide]",,7.30 to 8.00,6.89 to 7.19
"CC[C@@H](Nc1nc(Nc2cncc(-n3cc(Cl)cn3)c2)c(C(N)=O)cc1F)[C@H](C)N [Example 2-522, 6-(((2S,3R)-2-aminopentan-3-yl)amino)-2-((5-(4-chloro-1H-pyrazol-1-yl)pyridin-3-yl)amino)-5-fluoronicotinamide]",,7.30 to 8.00,6.70 to 6.89
COCCn1nc(OC)c2cc(Nc3nc(N[C@H](C4CC4)[C@H](C)N)c(F)cc3C(N)=O)ccc21 [Example 2-539],,> 8.00,6.70 to 6.89
"CC[C@H](N)[C@H](Nc1nc(Nc2cccc3c2cnn3C)c(C(N)=O)cc1F)C1CC1 [Example 2-546, 6-(((1R,2S)-2-amino-1-cyclopropylbutyl)amino)-5-fluoro-2-((1-methyl-1H-indazol-4-yl)amino)nicotinamide]",,> 8.00,6.70 to 6.89
